Experimental data published in patent publication US10155985B2, “Evaluation of eosinophilic esophagitis” (CHILDREN'S HOSPITAL MEDICAL CENTER, priority 2004, dated 2018).

Assays:
EE transcriptome [1] = assay: EE transcriptome of EE patients after fluticasone propionate treatment; format: in vivo, human; conditions: EE patients treated; FIG. 6
Description: The data were analyzed by cluster analysis and ordered (standard correlation (A) and distance (B)) using Genespring software. […] Each column represented a separate individual and each line a gene. RNA from each patient was subjected to chip analysis using Affymetrix Human Genome U133 GeneChip plus 2.
In one embodiment, the EE transcriptome was used to evaluate EE patients pre- and post-treatment regimens.
This group of 13 non-responsive genes is SEQ ID NOS. 6, 35, 43, 61, 129, 1358, 1441, 1515, 1538, 1584, 1615, 1618, and 1620. Evaluation of these genes provides a marker of past, present, and/or future active disease, especially in the absence of overt disease. […] Thus, these 13 genes can be used to evaluate a patients propensity to EE, particularly in the absence of clinical or physical symptoms of EE or microscopic findings typical of EE. […] These 13 genes can be used to evaluate EE in an asymptomatic population or when past EE is suspected in a non-active EE individual at the time of endoscopy.

eosinophilic esophagitis = conditions: cited from earlier work
[2] = test system: esophageal epithelial cells; assay: Transcriptome of esophageal epithelial cells stimulated with IL-13, compared to the EE transcriptome; format: cell-based
Source text: In one embodiment, the EE transcriptome was compared to transcriptomes in cell/tissues that had been treated with one or more compounds potentially involved with and/or efficacious against EE. By comparing the EE transcriptome to the transcriptome of, e.g., a simple in vitro or ex vivo model of a particular compound, one can assess the percentage of genes that are dysregulated in EE due to that particular compound.
For example, in ex vivo or in vitro models, a compound was used to stimulate an esophageal cell type.

EE transcriptome [3] = assay: Genome-wide microarray transcript profiling of esophageal biopsies, EE patients vs normal individuals (EE transcriptome); conditions: transcript level in esophageal biopsies of EE patients (n=76) compared to normal individuals (n=13); Affymetrix Human Genome U133 plus 2; p<0.01
Summary of the method: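 Distal esophageal biopsies from EE patients (n=76; >24 eosinophils/hpf, basal hyperplasia) and normal controls (n=13; 0 eosinophils/hpf) profiled on Affymetrix Human Genome U133 plus 2 chips. Expression by absolute call and average difference, global scaling; transcriptome genes defined as p<0.01 (Welch t-test) and ≥1.5-fold change.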

CCC(=O)O[C@]1(C(=O)SCF)[C@H](C)C[C@H]2[C@@H]3C[C@H](F)C4=CC(=O)C=C[C@]4(C)[C@@]3(F)[C@@H](O)C[C@@]21C [fluticasone propionate]
number of EE transcriptome genes normalized by treatment (EE transcriptome [1]): 1605 genes/1620 genes
number of EE transcriptome genes resistant to treatment (EE transcriptome [1]): 13 genes/1620 genes
share of the EE transcriptome resistant to treatment (EE transcriptome [1]): less than 1%
effect on EE disease (eosinophilic esophagitis; Gastroenterology 131 (2006) 1381): induce EE disease remission
effect on EE gene dysregulation (eosinophilic esophagitis; J. Allergy Clin. Immunol. 120 (2007) 1292, U.S. Ser. No. 61/118,981): reverse EE gene dysregulation

interleukin 13 [IL-13]
share of the genes of the EE transcriptome potentially due to stimulation of esophageal epithelial cells [2]: 20%

B1: SEQ_ID_#245 (nucleic acid, listed as Homo sapiens)
DNA: TTTTTTTTTTGTATTTTTTGCAGGGACAGGGTTTCACCATATTGCTCAGGGTAGTCTCGAACTCCTGAGCTCAAGGGATCCACCCTGCCTTGGCCTCCCAGTGTGCTGGGATTTCACACGTGAGCCACCGAGCCCAGCTACATTCTTATTTCCTAAACTTTACAAGTTCACACTCTTCCCTTTAAACAAATGTGCCCCCTCTGGCGGTGTCATTTGAGTCCCGGTGTATGTCATTAAGCCTCTTAACCTCAACCACTACTTCCCACTGAAATAACTCTATTTTCTTTTTTTCTAATGAAAAAGTAAGACATGTTCTATGTAAAAATTAAAATATGGTGAGCACTTACCACTTACTATGAGCCAGGCATTGAACTAAGTATTTTTTAATCTTATTTTCATCCTCGTGATATGAGGTCAGTGCTTTGATGAGTTCCATTTTACGTAAGAAAGTAGTTAAG
Fold Change (EE transcriptome [3]): 2.303

B2: SEQ_ID_#186 (nucleic acid, listed as Homo sapiens)
DNA: CACCGGCTACAAGGCTAGACCGGGGGCTCGCATATCTCCACTTGCAGCTGCCACTGCCATTAGAAGAACTTGCTCAGCCAGCTCCTGGGCCCCAGGAAAAGGACAAGTGTCACCCAGAACAGAGCCACCTCCAGCTGCACTCAGCTCCAGAAGCTGGCCCAGCCGGTCCAGTACACCTTTTAAATAATGTCCTCTACGTGCCGGTGTGGAAGTAGCCCGGATGCAATTGAATGAACAACAGACGGTGCTTTCCAGGACGGCGCTGTGCTTTCCAGGATGGTGCTGTGCTTTCATTCATTTGGGTAGCTCCTCTGTGAGCCTCCCAGCGCCGACTGCAGAGCCCCCACTCTCCAGCCTGCAAGACCCCGAAATTCAAGCCACACAAAGAAAGGAGGAGGGGGCCGTGGCATTTACTGAACCTTATAAAACTGTCAGCAAAACAGCCCTTAGGCTTGGACTCCCTGCTAGCCGGGTTTTACGGTGCTGAAGTCAGCATCTTGATTCAGCTGCATAAATAATCTCCTGCAGTCCTGCAAGGCCTGGGGTAGGAGAGGGTATGGGGACCAGGGCACTCTGTAAGGGCTGGATAGGAACCCCAGGGAATAAGACAGACCAATGCGGGACTTCAGACTCCACTGCAGCGGGATCGGG
Fold Change (EE transcriptome [3]): 2.617

B3: SEQ_ID_#243 (nucleic acid, listed as Homo sapiens)
DNA: GGAAAGAGAGGAGAGGGGAGGGGAAGAGAGGGGAGGGAAGGGCAGGGCAGGGCAGAGCCCGGCAGGCAGCCCTCAGAGGAGGGGCGCAGGCCCCAGCCCAAGGCCTCCCGCGCCTGCCCAGGTCCCGGCCTCCATCGTCCAGGGCTCTGGGGCTCCCAGGGGAGACACCCACGCTCGGCCAAGCCCAGGGTTCCAGAAGCCCAGGGGTGGCGGCAGCCGGGCTCAGCCTATGGCCAGGCTCGCATTCAGACATGCGCCAGCCTCGGTCGGCTCTCTCCGGGAGACACTAAGATCTCCTCACTGACTTTGGTGTTCCTTGGTCTCACCAGCGCGTCCTAGCTGTGCCGAGCTCACACCCACCCTGTTTGGTGTAAGCCACAGGTCCACAACGTTCATCAGCTCTGGAAATCCCTCAACAATTGTGTCCAGTTTCACCACGAATTCCTTCTCCATATCCTCACCATTTTCTTTTACCCCCTCATCAAATTACTCCCTTCCGTCTAATCTGCTGATTAACTCATTCATTTTATCTTAAATTATTATG
Fold Change (EE transcriptome [3]): 2.308

B4: SEQ_ID_#52 (nucleic acid, listed as Homo sapiens)
DNA: TTTTTTTCCAAGGGGAGAATGAAGCCATTTTATTTAGGGGAATGTTAAAACAAAGCCATATACAATCTGTAACAAATACAATACAATTGTTTGTTCCCTAGTCCTGAATAATTACAGTATATACAAAATCTGTAAGGCACTGGTTCCCCCAAAAGAACAAATGAGTCTTCTTGTGAAACAGACAACGAAACCCCTATATTGCCAACTTTTCTCCAAAAAATATGGCATTGTTTTTTTGTTTTGTTTTACAAGAGGAATCACAATTGCTAAATTAAGTCACTTCTGATGCCATTTCTTTCATTTCCACTGCTATGTGTCTGGGTTTTCTAAGGCAATGTAACTACTGAACATGTTCAAGTTTAAAAAACTATACTTCTCTCAGTGCCGTTCCACCCACAAACAAAGAAGAATCAGATCA
Fold Change (EE transcriptome [3]): 5.183

B5: SEQ_ID_#43 (nucleic acid, listed as Homo sapiens)
DNA: TTCACTTTTTCATTATTTTATTGTTGTTTTAGTAGCATTTTGAGGTGAATGTATGCATAATCAGTGAATTAGACAAGCATGCACATACATGATATCTGATCAAACATTTTTTTGTCTCTCATCATCCTCATAAAATTTATTCAGTGGGAGAAGCTTTTTCTTCCATCAGATACATTCCAGTTGTATGCCAACATACTCAGGTAAGAGCAACATTTTGGTCATTTTAAATAGTTTGGTAATTATGACTCCCAGTCGCCTACAATAAGAAGAAACTACAATAATTTAGTACTAAATTTTTCTTCCCTCTCCAACTGAGTCTTGTGTTGAGTTGCCTACTTGCGCTAGCACATCTTCCCTTGCTGGTTGACATTTTTGCTAAGATTTCTCCCTCTCCTTCCACCCCACCTTGGACACGGAGGTTTCTGGCCTCCCTTTCCCCAAGGTCCCCAAAAAAAGAAATCTGTCTTATGAGATAGGGCTGCCTTCACATGGTGTCAGGGTTCTCTGGATAGTAATTGTGTGTAATAAGAGAGGGAGCATTCAAGAACTCCCATAGAAATTCTCATAGCCCTGACTTCTCATCTTTAGCTTGTGTAGATTTTTTTGTATTCCAGGTGGTCATTTGTGACTCCTTCCTCATCCCACAATCTGGCTTCACCTCCCACTTCTTGATGCTGGGTTCCCTCCACCTCTTTGGACAACCTATCAGAGAGGACCTAAAGAGCCCATGCTGACTTCACTCTTGCATGTCTCACTATGGTTCATGGGAAACCACACATCCATTGCCCTGACAACACTAGACATACAGGC
Fold Change (EE transcriptome [3]): 5.944
